Data set [1] deals with VMAT2 (Homo sapiens, UniProt Q05940). Description: Estimated human VMAT2 %TO from human PK and NHP PET free EC50. Details: from tissue; host or cells: brain of healthy male volunteers (caudate, putamen). The class given is in vivo. As to the method: (§1) Valbenazine human plasma exposure metrics in patients were estimated with a population pharmacokinetic (PK) analysis and plasma protein binding (PPB) data. […] These steady-state concentrations, in conjunction with free EC50 from NHP PET for blocking compounds was used to estimate %TO in humans. Plasma concentrations of NBI-750142 following 60 mg BID dose were estimated using plasma concentrations following a single oral dose of 60 mg NBI-750142 using the principle of superposition.
Sequence of VMAT2 (Homo sapiens, UniProt Q05940) (Q05940 whole entry): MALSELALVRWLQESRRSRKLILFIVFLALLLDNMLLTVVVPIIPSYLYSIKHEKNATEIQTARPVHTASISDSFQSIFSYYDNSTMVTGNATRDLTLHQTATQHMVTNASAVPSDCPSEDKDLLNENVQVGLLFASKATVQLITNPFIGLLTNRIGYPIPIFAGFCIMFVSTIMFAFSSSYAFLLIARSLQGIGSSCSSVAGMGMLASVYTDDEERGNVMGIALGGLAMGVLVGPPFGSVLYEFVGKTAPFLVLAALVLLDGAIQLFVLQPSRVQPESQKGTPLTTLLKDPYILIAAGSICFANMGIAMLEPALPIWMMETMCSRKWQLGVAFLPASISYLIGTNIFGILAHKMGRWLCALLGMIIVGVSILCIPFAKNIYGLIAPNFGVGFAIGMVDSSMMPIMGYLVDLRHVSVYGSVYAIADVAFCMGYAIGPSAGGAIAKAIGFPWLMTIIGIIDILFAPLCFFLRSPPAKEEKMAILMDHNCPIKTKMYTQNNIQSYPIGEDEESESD

Data set [2] is described as follows: Plasma protein binding by equilibrium dialysis, human plasma. It counts as in vitro ADME, humans. The settings on record: both sexes, pooled plasma, read-out: fraction unbound in plasma (fu_p).
Data set [3] addresses VMAT2 (Macaca fascicularis, UniProt A0A2K5UVB8). Briefly: NHP [18F]AV-133 PET target occupancy. It counts as in vivo, cynomolgus macaques. The settings on record: for EC50: Emax model. As to the method:
Each NHP PET study enrolled two to three cynomolgus macaques, (3.8–9 year age range).
NHPs fasted overnight before individual PET scans. For the NBI-750142 study, 60 min prior to NBI-750142 or vehicle administration, animals were sedated with an intramuscular injection of 2 mg/kg Aflaxan, 0.02 mg/kg dexmedetomidine, and 0.3 mg/kg midazolam. The animals were intubated with an endotracheal tube for continued delivery of oxygen (1.5–2.5 L) and 1.0–2.5% isoflurane for anesthesia maintenance.
The animals were intubated with an endotracheal tube for continued delivery of isoflurane for anesthesia maintenance.
For all NHP PET scans, blocking compound was administered with a bolus loading dose, followed by constant intravenous infusion over 3 h, with the goal of achieving steady-state plasma exposure. One hour after blocking compound or vehicle administration, [^18F]AV-133 was administered as an intravenous bolus. Dynamic PET data were acquired with a MicroPET Focus-220 camera (Siemens Microsystems, Knoxville, TN) for 120 min post injection and reconstructed into a series of 33 frames and all standard corrections were applied for normalization, randoms, scatter, and attenuation. Brain PET images were analyzed using PMOD software package v3.802 (PMOD Technologies, Zurich, Switzerland). […]
During each scan, 1 mL whole blood PK samples were collected (in K2 EDTA tubes) at multiple time points. Blocking compound concentration in plasma samples were analyzed using validated LC-MS/MS bioanalytical methods. […] The average plasma concentration, Cave, was calculated as the mean compound concentration of samples collected during the PET scan and used for PK-TO analysis.
Time-activity curves were generated for the caudate, putamen, and cerebellum. Non-displaceable binding potential (BPND) was estimated using non-invasive Logan graphical analysis with cerebellum as reference region. %TO of the blocking compound was calculated in the caudate and putamen using baseline and post-dose BPND as follows:1 %TO=1−BPNDpost−block/BPNDbaselinex100 […]

Data set [4] is described as follows: Human steady-state plasma exposure (population PK / superposition). The class given is in vivo. The settings on record: 60 mg NBI-750142 BID. How it is done:
as §1

Where [5] appears, read: 60 mg NBI-750142 BID, NHP PET free EC50 6.7 ng/mL.
[6] abbreviates: estimated from single 60 mg oral dose by superposition.

Molecules are shown by their SMILES. Like-named read-outs stand apart in the source and are kept apart here.

Sequence of VMAT2 (Macaca fascicularis, UniProt A0A2K5UVB8) (A0A2K5UVB8 entry or part of it): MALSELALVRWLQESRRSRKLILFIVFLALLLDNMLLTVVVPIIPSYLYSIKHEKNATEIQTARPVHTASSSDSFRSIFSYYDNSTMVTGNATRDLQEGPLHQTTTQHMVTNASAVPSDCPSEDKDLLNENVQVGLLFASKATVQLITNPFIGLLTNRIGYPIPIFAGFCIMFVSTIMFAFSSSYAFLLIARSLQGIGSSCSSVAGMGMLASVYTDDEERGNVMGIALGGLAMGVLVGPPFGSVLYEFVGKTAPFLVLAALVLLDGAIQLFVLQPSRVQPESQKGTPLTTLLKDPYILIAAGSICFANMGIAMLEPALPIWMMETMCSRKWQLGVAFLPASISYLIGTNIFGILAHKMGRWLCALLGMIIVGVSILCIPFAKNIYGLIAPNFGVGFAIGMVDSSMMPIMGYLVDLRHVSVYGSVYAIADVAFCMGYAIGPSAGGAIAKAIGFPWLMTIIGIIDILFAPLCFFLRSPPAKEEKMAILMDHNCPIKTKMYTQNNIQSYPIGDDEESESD

As for `COc1cc2c(cc1OC)[C@H]1CN(C)[C@H](CC(C)(C)C)CN1CC2` [NBI-750142], the “VMAT2 %TO estimations” value at VMAT2 [1] (60 mg NBI-750142 BID (acceptable doses), Ctrough to Cmax) is 36–78%. On VMAT2 [1] (setting [5]), the “VMAT2 %TO at Cavg” value is 67%, the “VMAT2 %TO at Cmax” value is listed as 78% and the “VMAT2 %TO at Ctrough” value is listed as 36%. Besides, the fraction unbound in data set [2] was determined as 0.5. The “EC50:Ki Ratio” value on VMAT2 [3] (NHP, free PET EC50 over in vitro Ki) is on record as 1.1. Moreover, the EC50 at VMAT2 [3] (total compound Cave during 120-min scan, read-out: EC50 (average total plasma concentration vs %TO) (converted)) was 33.1 nM. Further, the EC50 on VMAT2 [3] (total concentration multiplied by fu_p, read-out: free EC50 (free plasma concentration vs %TO) (converted)) was 20.2 nM. Also, in data set [4] (setting [6]), the “Cavg, total” value is listed as 27.7 ng/mL; the “Cmax, total” value is 48.1 ng/mL; the “Ctrough, total” value was 7.6 ng/mL. In addition, in data set [4] (total x fu_p), the “Cavg, free” value turned out to be 13.9 ng/mL; the “Cmax, free” value is on record as 24.1 ng/mL; the “Ctrough, free” value stood at 3.8 ng/mL.
